Measurements taken from publication PMC6540285, “Evaluation of Protein Kinase Inhibitors with PLK4 Cross-Over Potential in a Pre-Clinical Model of Cancer” (International Journal of Molecular Sciences, 2019).
pIC50: −log10 of the molar value.

How the values were obtained:
RT and MB cells = test: Beta-galactosidase senescence assay; type: cell-based; details: all cell lines
Procedure: Senescence was evaluated using the Beta-galactosidase assay (Senescence Cells Histochemical Staining Kit CS0030 (Sigma, St Louis, MO, USA) and clonogenic recovery assay as previously described.

ABL1 F317L = ABL1 F317L (Homo sapiens, UniProt P00519, F317L); test: SelectScreen kinase profiling, ZLYTE; type: biochemical
AKT2 (PKB beta) = AKT2 (PKB beta) (Homo sapiens, UniProt P31751); test: SelectScreen kinase profiling, ZLYTE; type: biochemical
AKT2 (PKB beta), sequence (P31751 whole entry): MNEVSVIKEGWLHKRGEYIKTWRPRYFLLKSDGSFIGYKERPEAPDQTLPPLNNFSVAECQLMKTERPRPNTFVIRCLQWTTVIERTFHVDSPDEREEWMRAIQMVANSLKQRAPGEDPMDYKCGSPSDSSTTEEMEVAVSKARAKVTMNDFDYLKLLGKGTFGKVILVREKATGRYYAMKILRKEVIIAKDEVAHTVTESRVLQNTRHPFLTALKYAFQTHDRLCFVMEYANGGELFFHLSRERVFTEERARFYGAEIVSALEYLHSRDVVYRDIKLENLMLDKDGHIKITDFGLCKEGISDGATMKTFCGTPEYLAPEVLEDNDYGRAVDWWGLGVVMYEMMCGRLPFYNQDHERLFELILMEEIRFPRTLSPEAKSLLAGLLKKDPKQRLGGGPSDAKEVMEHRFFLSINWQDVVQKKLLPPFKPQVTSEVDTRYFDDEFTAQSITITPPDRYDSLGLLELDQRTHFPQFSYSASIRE

AMPK (A1/B2/G3) = AMPK (A1/B2/G3) (Homo sapiens, UniProt Q13131); test: SelectScreen kinase profiling, ZLYTE; type: biochemical
AMPK (A2/B2/G2) = AMPK (A2/B2/G2) (Homo sapiens, UniProt P54646); test: SelectScreen kinase profiling, LanthaScreen binding
AURKA (Aurora A) = AURKA (Aurora A) (Homo sapiens, UniProt O14965); test: SelectScreen kinase profiling, ZLYTE; type: biochemical
BMPR1B (ALK6) = BMPR1B (ALK6) (Homo sapiens, UniProt O00238); test: SelectScreen kinase profiling, LanthaScreen binding
CAMK2A (CaMKII alpha) = CAMK2A (CaMKII alpha) (Homo sapiens, UniProt Q9UQM7); test: SelectScreen kinase profiling, ZLYTE; type: biochemical
CSNK1D (CK1 delta) = CSNK1D (CK1 delta) (Homo sapiens, UniProt P48730); test: SelectScreen kinase profiling, ZLYTE; type: biochemical
DDR2 = DDR2 (Homo sapiens, UniProt Q16832); test: SelectScreen kinase profiling, LanthaScreen binding; details: DDR2, 10 µM
DDR2, sequence (Q16832 22-855): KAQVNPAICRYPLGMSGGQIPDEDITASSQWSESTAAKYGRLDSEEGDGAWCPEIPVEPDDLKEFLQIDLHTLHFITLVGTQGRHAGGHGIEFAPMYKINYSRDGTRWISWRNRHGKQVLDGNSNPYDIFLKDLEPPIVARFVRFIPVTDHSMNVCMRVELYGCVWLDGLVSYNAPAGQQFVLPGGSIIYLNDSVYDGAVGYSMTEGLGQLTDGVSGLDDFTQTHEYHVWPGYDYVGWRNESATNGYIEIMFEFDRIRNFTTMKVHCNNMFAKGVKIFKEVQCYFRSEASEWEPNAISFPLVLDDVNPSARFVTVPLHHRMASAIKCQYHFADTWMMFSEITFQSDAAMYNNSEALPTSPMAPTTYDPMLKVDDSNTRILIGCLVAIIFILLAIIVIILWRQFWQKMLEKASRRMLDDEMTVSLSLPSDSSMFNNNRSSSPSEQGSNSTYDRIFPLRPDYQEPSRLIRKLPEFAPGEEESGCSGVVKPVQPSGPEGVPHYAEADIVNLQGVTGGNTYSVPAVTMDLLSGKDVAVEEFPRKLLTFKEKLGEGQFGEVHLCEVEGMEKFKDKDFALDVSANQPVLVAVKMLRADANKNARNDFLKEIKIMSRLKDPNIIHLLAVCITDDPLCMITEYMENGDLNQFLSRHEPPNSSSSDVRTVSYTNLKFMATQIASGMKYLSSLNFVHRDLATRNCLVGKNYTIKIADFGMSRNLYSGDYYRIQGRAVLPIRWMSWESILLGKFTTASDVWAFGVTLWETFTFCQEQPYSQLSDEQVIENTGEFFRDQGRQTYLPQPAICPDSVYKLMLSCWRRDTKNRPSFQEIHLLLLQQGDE

EPHA6 = EPHA6 (Homo sapiens, UniProt Q9UF33); test: as above; details: EPHA6, 10 µM
FGFR3 V555M = FGFR3 V555M (Homo sapiens, UniProt P22607, V555M); test: SelectScreen kinase profiling, ZLYTE; type: biochemical
KIT V560G = KIT V560G (Homo sapiens, UniProt P10721, V560G); test: SelectScreen kinase profiling, ZLYTE; type: biochemical
MAP3K10 (MLK2) = MAP3K10 (MLK2) (Homo sapiens, UniProt Q02779); test: SelectScreen kinase profiling, LanthaScreen binding
MAP3K10 (MLK2), sequence (Q02779 whole entry): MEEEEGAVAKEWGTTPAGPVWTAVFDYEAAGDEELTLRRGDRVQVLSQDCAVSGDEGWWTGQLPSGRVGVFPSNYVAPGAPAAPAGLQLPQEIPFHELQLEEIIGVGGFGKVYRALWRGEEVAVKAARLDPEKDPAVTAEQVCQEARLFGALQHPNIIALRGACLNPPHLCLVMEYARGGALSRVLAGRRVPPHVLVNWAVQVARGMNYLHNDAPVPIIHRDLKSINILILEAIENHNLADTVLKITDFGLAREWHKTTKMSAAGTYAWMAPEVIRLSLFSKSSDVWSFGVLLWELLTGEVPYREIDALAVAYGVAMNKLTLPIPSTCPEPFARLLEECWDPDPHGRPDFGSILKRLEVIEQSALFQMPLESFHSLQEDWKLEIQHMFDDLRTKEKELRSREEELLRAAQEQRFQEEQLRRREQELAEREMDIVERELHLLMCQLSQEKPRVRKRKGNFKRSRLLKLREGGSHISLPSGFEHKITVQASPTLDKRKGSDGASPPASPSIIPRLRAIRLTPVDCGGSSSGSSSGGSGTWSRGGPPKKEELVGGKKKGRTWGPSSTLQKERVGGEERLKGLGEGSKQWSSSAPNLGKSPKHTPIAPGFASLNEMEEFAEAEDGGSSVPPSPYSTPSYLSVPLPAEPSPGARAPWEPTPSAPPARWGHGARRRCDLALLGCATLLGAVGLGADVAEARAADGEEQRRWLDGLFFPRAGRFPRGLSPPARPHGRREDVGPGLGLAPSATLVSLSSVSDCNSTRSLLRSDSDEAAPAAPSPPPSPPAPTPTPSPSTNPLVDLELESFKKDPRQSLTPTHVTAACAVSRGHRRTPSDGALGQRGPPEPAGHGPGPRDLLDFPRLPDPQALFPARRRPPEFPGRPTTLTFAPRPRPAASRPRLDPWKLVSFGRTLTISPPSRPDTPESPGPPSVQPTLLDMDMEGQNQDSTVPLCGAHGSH

MAP4K1 (HPK1) = MAP4K1 (HPK1) (Homo sapiens, UniProt Q92918); test: as above
MAP4K4 (HGK) = MAP4K4 (HGK) (Homo sapiens, UniProt O95819); test: SelectScreen kinase profiling, ZLYTE; type: biochemical
MAP4K4 (HGK), sequence (O95819 whole entry): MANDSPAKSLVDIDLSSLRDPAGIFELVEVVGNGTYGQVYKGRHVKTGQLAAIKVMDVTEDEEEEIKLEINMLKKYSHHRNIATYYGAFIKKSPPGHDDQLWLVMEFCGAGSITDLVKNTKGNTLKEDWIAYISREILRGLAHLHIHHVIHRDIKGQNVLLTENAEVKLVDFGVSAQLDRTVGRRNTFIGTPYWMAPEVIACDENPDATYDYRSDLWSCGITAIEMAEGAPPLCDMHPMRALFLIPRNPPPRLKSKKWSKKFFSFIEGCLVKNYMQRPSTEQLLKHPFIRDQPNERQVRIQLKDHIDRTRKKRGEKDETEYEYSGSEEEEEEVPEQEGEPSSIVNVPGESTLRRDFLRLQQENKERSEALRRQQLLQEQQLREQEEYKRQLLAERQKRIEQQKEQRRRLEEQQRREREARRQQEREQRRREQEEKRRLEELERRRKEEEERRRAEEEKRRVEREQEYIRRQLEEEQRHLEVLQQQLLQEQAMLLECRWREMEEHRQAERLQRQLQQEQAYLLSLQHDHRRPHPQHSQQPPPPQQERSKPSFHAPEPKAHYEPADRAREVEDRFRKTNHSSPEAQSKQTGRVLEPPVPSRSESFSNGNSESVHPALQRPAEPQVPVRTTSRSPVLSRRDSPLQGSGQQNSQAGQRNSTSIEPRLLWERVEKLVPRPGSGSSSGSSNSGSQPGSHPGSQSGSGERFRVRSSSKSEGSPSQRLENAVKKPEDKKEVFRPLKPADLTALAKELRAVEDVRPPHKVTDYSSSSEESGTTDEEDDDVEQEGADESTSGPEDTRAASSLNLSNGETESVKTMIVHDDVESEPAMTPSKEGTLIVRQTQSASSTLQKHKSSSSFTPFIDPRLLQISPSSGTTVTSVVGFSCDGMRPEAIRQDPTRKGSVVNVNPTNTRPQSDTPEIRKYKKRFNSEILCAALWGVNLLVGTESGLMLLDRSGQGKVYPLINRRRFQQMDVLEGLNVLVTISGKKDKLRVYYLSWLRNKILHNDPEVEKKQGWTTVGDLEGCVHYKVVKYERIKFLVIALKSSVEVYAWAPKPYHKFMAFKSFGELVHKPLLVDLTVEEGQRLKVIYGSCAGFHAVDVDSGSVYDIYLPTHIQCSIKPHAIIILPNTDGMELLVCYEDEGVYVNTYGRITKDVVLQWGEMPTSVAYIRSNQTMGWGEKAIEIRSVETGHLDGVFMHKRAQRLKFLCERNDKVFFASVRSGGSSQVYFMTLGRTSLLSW

MATK (HYL) = MATK (HYL) (Homo sapiens, UniProt P42679); test: SelectScreen kinase profiling, ZLYTE; type: biochemical
MUSK = MUSK (Homo sapiens, UniProt O15146); test: SelectScreen kinase profiling, ZLYTE; type: biochemical
PIM3 = PIM3 (Homo sapiens, UniProt Q86V86); test: SelectScreen kinase profiling, ZLYTE; type: biochemical; details: PIM3, 10 µM
PIP5K1B = PIP5K1B (Homo sapiens, UniProt O14986); test: SelectScreen kinase profiling, Adapta; type: biochemical
PLK4 = target: T1, PLK4 (Homo sapiens, UniProt O00444); test: SelectScreen kinase profiling, LanthaScreen binding; details: PLK4, 10 µM
T1 sequence (O00444 1-970): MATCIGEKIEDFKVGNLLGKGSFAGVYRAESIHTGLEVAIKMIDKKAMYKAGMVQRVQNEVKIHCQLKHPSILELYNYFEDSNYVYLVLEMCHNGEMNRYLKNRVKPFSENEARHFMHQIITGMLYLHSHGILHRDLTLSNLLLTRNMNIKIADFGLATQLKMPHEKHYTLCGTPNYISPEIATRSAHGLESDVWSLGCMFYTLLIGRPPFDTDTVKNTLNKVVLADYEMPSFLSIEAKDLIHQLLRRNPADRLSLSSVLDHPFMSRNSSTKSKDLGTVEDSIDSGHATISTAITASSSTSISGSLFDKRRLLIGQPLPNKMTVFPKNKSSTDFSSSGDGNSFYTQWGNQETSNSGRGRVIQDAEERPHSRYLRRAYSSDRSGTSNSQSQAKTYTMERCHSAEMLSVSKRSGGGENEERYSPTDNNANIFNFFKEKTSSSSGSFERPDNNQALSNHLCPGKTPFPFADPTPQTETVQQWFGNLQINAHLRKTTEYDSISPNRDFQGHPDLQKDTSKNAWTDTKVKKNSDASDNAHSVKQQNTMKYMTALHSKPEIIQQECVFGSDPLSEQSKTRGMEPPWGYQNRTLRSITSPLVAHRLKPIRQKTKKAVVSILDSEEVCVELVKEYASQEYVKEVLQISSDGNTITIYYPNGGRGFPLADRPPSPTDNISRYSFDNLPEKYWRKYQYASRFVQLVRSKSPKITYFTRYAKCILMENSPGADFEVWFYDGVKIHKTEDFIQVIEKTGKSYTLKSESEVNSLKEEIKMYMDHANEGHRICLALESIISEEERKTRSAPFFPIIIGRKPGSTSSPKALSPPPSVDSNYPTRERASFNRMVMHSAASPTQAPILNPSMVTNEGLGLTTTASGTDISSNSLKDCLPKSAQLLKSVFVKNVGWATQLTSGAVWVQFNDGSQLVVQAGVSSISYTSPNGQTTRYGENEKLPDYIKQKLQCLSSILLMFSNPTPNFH

PRKACA (PKA) = PRKACA (PKA) (Homo sapiens, UniProt P17612); test: SelectScreen kinase profiling, ZLYTE; type: biochemical
PRKCE (PKC epsilon) = PRKCE (PKC epsilon) (Homo sapiens, UniProt Q02156); test: SelectScreen kinase profiling, ZLYTE; type: biochemical
PTK2B (FAK2) = PTK2B (FAK2) (Homo sapiens, UniProt Q14289); test: SelectScreen kinase profiling, ZLYTE; type: biochemical
PTK2B (FAK2), sequence (Q14289 whole entry): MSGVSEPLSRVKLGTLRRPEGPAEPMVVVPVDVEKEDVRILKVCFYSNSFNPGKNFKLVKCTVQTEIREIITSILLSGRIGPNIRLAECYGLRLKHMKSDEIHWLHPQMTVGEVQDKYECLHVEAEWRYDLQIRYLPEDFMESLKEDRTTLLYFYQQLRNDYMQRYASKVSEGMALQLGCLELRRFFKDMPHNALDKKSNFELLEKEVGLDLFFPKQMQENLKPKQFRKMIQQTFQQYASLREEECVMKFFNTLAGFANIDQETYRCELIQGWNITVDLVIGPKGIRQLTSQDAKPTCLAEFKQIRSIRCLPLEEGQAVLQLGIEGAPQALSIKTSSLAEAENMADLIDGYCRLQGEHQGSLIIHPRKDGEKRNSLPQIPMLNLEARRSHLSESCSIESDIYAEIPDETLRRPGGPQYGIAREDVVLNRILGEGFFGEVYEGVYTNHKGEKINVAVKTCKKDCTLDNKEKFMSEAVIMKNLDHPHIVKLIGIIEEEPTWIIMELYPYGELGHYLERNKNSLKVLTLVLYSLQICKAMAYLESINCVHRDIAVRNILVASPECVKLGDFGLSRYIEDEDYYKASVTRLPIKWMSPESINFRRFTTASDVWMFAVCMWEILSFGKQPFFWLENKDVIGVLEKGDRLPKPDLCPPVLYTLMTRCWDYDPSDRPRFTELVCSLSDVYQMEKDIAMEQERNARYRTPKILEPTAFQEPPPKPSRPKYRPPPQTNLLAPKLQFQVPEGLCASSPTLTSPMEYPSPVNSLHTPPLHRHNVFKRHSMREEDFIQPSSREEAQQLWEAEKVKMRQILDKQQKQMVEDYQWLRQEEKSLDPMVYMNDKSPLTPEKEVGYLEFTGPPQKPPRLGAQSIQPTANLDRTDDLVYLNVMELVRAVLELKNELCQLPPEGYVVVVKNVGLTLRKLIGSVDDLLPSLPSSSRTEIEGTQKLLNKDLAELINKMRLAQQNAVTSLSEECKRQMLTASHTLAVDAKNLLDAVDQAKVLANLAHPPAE

SRPK2 = SRPK2 (Homo sapiens, UniProt P78362); test: SelectScreen kinase profiling, ZLYTE; type: biochemical; details: SRPK2, 10 µM
MON cells = test: cells; details: read-out: MTT: IC50 of the proliferation assay
P450 3A5 = P450 3A5 (Homo sapiens, UniProt P20815); test: SelectScreen P450 Vivid biochemical assay; details: 10000nM
P450 3A5, sequence (P20815 whole entry): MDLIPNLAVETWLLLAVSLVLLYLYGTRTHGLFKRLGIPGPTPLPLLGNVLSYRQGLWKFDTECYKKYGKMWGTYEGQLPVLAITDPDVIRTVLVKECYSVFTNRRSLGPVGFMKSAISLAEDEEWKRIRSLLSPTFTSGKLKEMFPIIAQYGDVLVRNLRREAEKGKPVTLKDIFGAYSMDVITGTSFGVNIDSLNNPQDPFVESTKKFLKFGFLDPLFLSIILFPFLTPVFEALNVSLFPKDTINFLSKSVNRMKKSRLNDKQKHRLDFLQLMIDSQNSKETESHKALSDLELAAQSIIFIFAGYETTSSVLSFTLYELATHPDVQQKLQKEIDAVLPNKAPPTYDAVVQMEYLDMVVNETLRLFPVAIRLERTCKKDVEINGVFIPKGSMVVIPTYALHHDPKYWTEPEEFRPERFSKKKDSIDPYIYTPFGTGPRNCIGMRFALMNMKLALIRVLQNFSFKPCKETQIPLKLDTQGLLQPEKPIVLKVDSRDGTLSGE

## O=C(c1ccc(/C=C/c2n[nH]c3ccccc23)cc1)N1CCNCC1 [KW-2449]
RT and MB cells
  cell senescence (beta-galactosidase): dose-dependent induction of cell senescence
ABL1 F317L
  inhibition at 10 µM: 98%
AKT2 (PKB beta)
  inhibition at 10 µM: 29%
AMPK (A1/B2/G3)
  inhibition at 10 µM: 99%
AMPK (A2/B2/G2)
  inhibition at 10 µM: 78%
AURKA (Aurora A)
  inhibition at 10 µM: 98%
BMPR1B (ALK6)
  inhibition at 10 µM: 90%
CAMK2A (CaMKII alpha)
  inhibition at 10 µM: 67%
CSNK1D (CK1 delta)
  inhibition at 10 µM: 53%
DDR2
  inhibition at 10 µM: 53%
EPHA6
  inhibition at 10 µM: 73%
FGFR3 V555M
  inhibition at 10 µM: 100%
KIT V560G
  inhibition at 10 µM: 84%
MAP3K10 (MLK2)
  inhibition at 10 µM: 87%
MAP4K1 (HPK1)
  inhibition at 10 µM: 76%
MAP4K4 (HGK)
  inhibition at 10 µM: 98%
MATK (HYL)
  inhibition at 10 µM: 37%
MUSK
  inhibition at 10 µM: 90%
PIM3
  inhibition at 10 µM: 2%
PIP5K1B
  inhibition at 10 µM: 32%
PLK4
  inhibition at 10 µM: 61%
PRKACA (PKA)
  inhibition at 10 µM: 76%
PRKCE (PKC epsilon)
  inhibition at 10 µM: 10%
PTK2B (FAK2)
  inhibition at 10 µM: 96%
SRPK2
  inhibition at 10 µM: 32%
MON cells
  pIC50: 5.61
P450 3A5; substrate BOMCC
  % Inhibition 3A5 BOMCC: 14%
P450 3A5; substrate DBOMF
  % Inhibition 3A5 DBOMF: 10%
